Here are results for 13 molecules from patent publication US12522582B2 (Gilead Sciences, Inc., priority 2022, dated 2026).

The subject of one series is HSV-2 virus (MS strain). Nature of the series: HSV-2 Cellomics Assay (immunofluorescence of HSV protein gD in infected ARPE-19 cells). As to conditions: Human alphaherpesvirus 2, ARPE-19, 16 h.
Series [1] is described as follows: MT-4 CC50 Assay (CellTiter Glo). It counts as cell-based. As to conditions: human, MT-4 cells, luminescence, read-out: CC50-MT4. On the procedure:
Compounds were tested in 384-well plates: 18 compounds in duplex. Compounds were diluted in 7 points, 3-fold with DMSO by Bravo. Assay plate, which contains 20 uL medium with compounds, was seeded 2000 MT-4 cells in 20 uL/well by Multi-drop to start the assay. The plate was incubated at 37° C. for 5 days. On 6th day, the CellTiter Glo 40 uL was added in each well. Luminescence was read by Victor II.
In general terms: In ATP-based viability assays light output follows the ATP content of the culture.

[2] abbreviates: read-out: EC50-HSV2-10% Human Serum.

Read-outs that look alike come from different tables or passages of the source. Where only a bound is given, the exact number is not on record here.

Protocol for HSV-2 virus (MS strain): Compounds were tested for their ability to inhibit HSV-2 replication by monitoring the expression of the HSV protein gD using a high-throughput immunofluorescence-based assay. 10-dose, 3-fold serial dilutions of compounds were prepared at starting concentrations of 0.2 or 2 mM in 100% DMSO. […] The final starting concentration in the assay was either 1 or 10 μM. DMSO (no compound) and pritelivir were included on each microplate as negative and positive controls, respectively.
Prior to confluence, cells were transferred to a centrifuge tube and spun for 5 minutes at 1000 rpm. Cells were resuspended in assay medium (DMEM/F-12 Glutamax, 2% FBS, 1% Penicillin-Streptomycin) and counted. Cell density was adjusted to 150,000 cells/ml and infected with HSV-2 virus (MS strain, ATCC cat #VR-540) at a MOI of 0.06 in a 50 ml conical tube for 1 hour under constant rocking. Cells were then spun for 5 minutes at 1000 rpm and the media replaced with assay medium containing either 2% FBS or 10% human serum (EMD Millipore cat #S1-100 ML). 50 μl of the infection suspension were added into microplate wells that were pre-spotted with compounds (7,500 cells per well). Plates were incubated for 16 hours at 37° C.
After a 30-minute incubation at room temperature, plates were washed 4 times with 100 μl/well of PBS using a Biotek plate washer. […] Plates were washed 4 times again and 50 μl of DPBS were added to all wells prior to sealing the plates with a black adhesive seal. Fluorescence was measured on a Cellomics plate reader.
Data analysis was carried out using the Thermo Scientific HCS Studio software. Briefly, cells were identified using the DAPI nuclear stain and thresholds were set to filter cells out based on shape and size. A second threshold based on green fluorescence intensity (detection of HSV-2 gD) was set to identify HSV-2 infected cells. Data was reported as the average fluorescence intensity of HSV-2 infected cells.

Consider `C[S@](=N)(=O)c1ccc2c(c1)N(C(=O)[C@@H]1Cc3ccc(-c4ccccn4)cc3C1)CC2` (single isomer, unassigned) [Example 33], for which the EC50 in the series with HSV-2 virus (MS strain) (setting [2]) is 1370 nM; in the series on HSV-2 virus (MS strain) (read-out: EC50-HSV2-FBS), 165 nM. Besides, in series [1], the CC50 at 5 days is at least 50000 nM.
The matching figures for `NS(=O)(=O)c1cc2c(cc1F)CCN2C(=O)C1Cc2ccc(-c3ccccn3)cc2C1` (stereo not shown) [Example 8]: 22700 nM, 9.9 nM and 42300 nM.
`NS(=O)(=O)c1ccc2c(c1)N(C(=O)C1Cc3ccc(-c4cscn4)cc3C1)CC2` (stereo not shown) [Example 19]: the EC50 was at least 25000 nM in the series on HSV-2 virus (MS strain) (setting [2]) and 23 nM with HSV-2 virus (MS strain) (read-out: EC50-HSV2-FBS). In addition, the CC50 at 5 days in series [1] is 37700 nM.
Take `NS(=O)(=O)c1ccc2c(c1)N(C(=O)C1Cc3ccc(-c4cocn4)cc3C1)CC2` (stereo not shown) [Example 23]: the figures for the 50% effective concentration (EC50) in the series with HSV-2 virus (MS strain) (setting [2]) and in the series on HSV-2 virus (MS strain) (read-out: EC50-HSV2-FBS) were 11000 nM and 19 nM, respectively. Also, the cytotoxic concentration (CC50) at 5 days in series [1] is at least 50000 nM.
The matching figures for `NS(=O)(=O)c1ccc2c(c1)N(C(=O)C1Cc3cc(-c4ccccn4)ccc3O1)CC2` (stereo not shown) [Example 36]: at least 25000 nM, 71 nM and at least 50000 nM.
For the molecule `NS(=O)(=O)c1cc2c(cc1F)CCN2C(=O)C1Cc2cc(-c3ccccn3)ccc2O1` (stereo not shown) [Example 37], the half-maximal effective concentration (EC50) came to 19300 nM in the series with HSV-2 virus (MS strain) (setting [2]) and 10 nM with HSV-2 virus (MS strain) (read-out: EC50-HSV2-FBS). Further, the 50% cytotoxic concentration (CC50) at 5 days in series [1] was at least 50000 nM.
The matching figures for `C[C@@H]1Cc2cc(Br)c(S(N)(=O)=O)cc2N1C(=O)[C@@H]1Cc2ccc(-c3ccccn3)cc2C1` [Example 38, (R)-5-bromo-2-methyl-1-((R)-5-(pyridin-2-yl)-2,3-dihydro-1H-indene-2-carbonyl)indoline-6-sulfonamide]: 543 nM, 19 nM and at least 10000 nM.
`C[S@](=N)(=O)c1cc2c(cc1F)CCN2C(=O)[C@@H]1Cc2ccc(-c3ccccn3)cc2C1` [Example 41, (S)-(5-fluoro-1-((R)-5-(pyridin-2-yl)-2,3-dihydro-1H-indene-2-carbonyl)indolin-6-yl)(imino)(methyl)-16-sulfanone]: the EC50 amounted to 140 nM in the series with HSV-2 virus (MS strain) (setting [2]) and 37 nM in the series with HSV-2 virus (MS strain) (read-out: EC50-HSV2-FBS). Besides, the half-maximal cytotoxic concentration (CC50) at 5 days in series [1] is at least 10000 nM.
Consider `NS(=O)(=O)c1ccc2c(c1)N(C(=O)[C@@H]1Cc3ccc(-c4cccc5ccccc45)cc3C1)CC2` [Example 134, (R)-1-(5-(naphthalen-1-yl)-2,3-dihydro-1H-indene-2-carbonyl)indoline-6-sulfonamide], for which the EC50 with HSV-2 virus (MS strain) (setting [2]) worked out at 3100 nM; with HSV-2 virus (MS strain) (read-out: EC50-HSV2-FBS) it was 231 nM.
The matching figures for `C[C@@H]1CN(C(=O)[C@H]2Cc3cc(-c4ccccn4)c(F)cc3O2)c2cc(S(N)(=O)=O)c(F)cc21` [Example 136, (S)-5-fluoro-1-((R)-6-fluoro-5-(pyridin-2-yl)-2,3-dihydrobenzofuran-2-carbonyl)-3-methylindoline-6-sulfonamide]: 2220 nM and 89.6 nM.
As for `C[C@H]1CN(C(=O)[C@H]2Cc3cc(-c4ccccn4)c(F)cc3O2)c2cc(S(N)(=O)=O)c(F)cc21` [Example 137, (R)-5-fluoro-1-((R)-6-fluoro-5-(pyridin-2-yl)-2,3-dihydrobenzofuran-2-carbonyl)-3-methylindoline-6-sulfonamide], the results for the EC50 with HSV-2 virus (MS strain) (setting [2]) and in the series on HSV-2 virus (MS strain) (read-out: EC50-HSV2-FBS) were 538 nM and 129 nM, respectively.
Take `C[C@H]1c2ccc(-c3ccccn3)cc2C[C@@H]1C(=O)N1C[C@H](C(F)(F)F)c2cc(F)c(S(N)(=O)=O)cc21` [Example 139, (R)-5-fluoro-1-((1R,2S)-1-methyl-5-(pyridin-2-yl)-2,3-dihydro-1H-indene-2-carbonyl)-3-(trifluoromethyl)indoline-6-sulfonamide]: the half-maximal effective concentration (EC50) in the series with HSV-2 virus (MS strain) (setting [2]) was 1710 nM; with HSV-2 virus (MS strain) (read-out: EC50-HSV2-FBS), 74.2 nM.
The matching figures for `C[C@@H]1Cc2cc(F)c(S(N)(=O)=O)cc2N1C(=O)[C@H]1Cc2ccc(-c3ccccn3)cc2C1` [Example 141, (R)-5-fluoro-2-methyl-1-((S)-5-(pyridin-2-yl)-2,3-dihydro-1H-indene-2-carbonyl)indoline-6-sulfonamide]: 2630 nM and 293 nM.

As usually defined, the EC50 is the concentration that produces a half-maximal response. As usually defined, the CC50 is the concentration giving 50% cytotoxicity.
